Positions count from the first letter of the chain named. Where two headings read alike, the source gives them in different places.
Key:
human AR = target: T1, human AR (Homo sapiens, UniProt P10275); assay: Indigo Biosciences AR reporter cell assay (AR inhibition, antagonist mode); assay type: cell-based; conditions: for IC50: luciferase reporter cells, 24 hr, EC80 of agonist 5α-dihydro-11-keto testosterone, read-out: AR Inhibition Indigo Cell Based: Avg IC50
T1 construct: Reporter Cells used in these assays expressed a native receptor (AR)
T1 sequence (P10275 1-920): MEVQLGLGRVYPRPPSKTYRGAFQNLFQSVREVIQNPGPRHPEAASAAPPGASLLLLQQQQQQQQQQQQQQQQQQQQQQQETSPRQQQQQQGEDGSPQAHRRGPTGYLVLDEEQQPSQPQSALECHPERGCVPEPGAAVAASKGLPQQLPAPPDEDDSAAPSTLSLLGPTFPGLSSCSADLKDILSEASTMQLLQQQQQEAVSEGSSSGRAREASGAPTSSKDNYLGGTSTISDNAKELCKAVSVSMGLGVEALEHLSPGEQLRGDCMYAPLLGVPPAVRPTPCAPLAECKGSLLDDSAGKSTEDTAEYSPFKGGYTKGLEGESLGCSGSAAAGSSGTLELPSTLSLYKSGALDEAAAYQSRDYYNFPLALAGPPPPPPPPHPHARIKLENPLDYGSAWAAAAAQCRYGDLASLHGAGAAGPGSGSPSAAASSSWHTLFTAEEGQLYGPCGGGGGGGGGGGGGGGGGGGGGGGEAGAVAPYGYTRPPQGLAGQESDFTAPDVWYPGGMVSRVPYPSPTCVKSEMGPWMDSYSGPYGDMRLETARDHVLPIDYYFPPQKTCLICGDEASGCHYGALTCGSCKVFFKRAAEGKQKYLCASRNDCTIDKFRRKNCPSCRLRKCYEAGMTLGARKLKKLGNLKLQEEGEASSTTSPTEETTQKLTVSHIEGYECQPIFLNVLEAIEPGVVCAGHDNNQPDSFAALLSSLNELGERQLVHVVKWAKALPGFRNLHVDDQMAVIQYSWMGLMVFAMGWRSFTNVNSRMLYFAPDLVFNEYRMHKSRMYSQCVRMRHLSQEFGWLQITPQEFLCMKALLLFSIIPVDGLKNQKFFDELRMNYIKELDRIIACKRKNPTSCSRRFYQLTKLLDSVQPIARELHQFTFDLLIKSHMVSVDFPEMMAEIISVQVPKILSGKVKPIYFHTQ
Experimental: The aim of this study was to evaluate compounds 1-12 and the comparative compounds 1-2 for inhibition activities against human AR. Reporter Cells used in these assays expressed a native receptor (AR). The reporter gene, firefly luciferase, is functionally linked to an upstream receptor-specific genetic response element (GRE). Reporter cells were treated with eight concentrations, starting at 50 μM and following with 3.17-fold dilutions. Single treatment concentration was performed (n=1). Assay performance was validated using the reference antagonist hydroxy flutamide. • Step 1: A suspension of reporter cells was prepared in Cell Recovery Medium (CRM). Reporter cells were first supplemented with 2×-EC80 concentration of the reference agonist, 5α-dihydro-11-keto testosterone, then 100 μl of the Reporter Cell suspension was dispensed into wells of a white 96-well assay plate. • Step 2: Test compound master stocks were diluted in DMSO to generate solutions at ‘500×-concentration’ relative to the final treatment concentration and diluted directly into INDIGO's Compound Screening Medium (CSM; containing charcoal-stripped FBS) to generate ‘2×-concentration’ treatment media. This was diluted into the wells to the final concentration. Assay plates were incubated at 37° C., 5% CO2 and ~70% humidity for 24 hr. • Step 3: Following the incubation period, wells were rinsed once with Live Cell Multiplex (LCM) Buffer, then LCM substrate was added. Following incubation at room temperature for 15 min, LCM substrate was discarded and 100 μL/well of luciferase detection reagent was added. Subsequently, fluorescence was measured to determine the relative number of live cells per assay well. RLU values were quantified after a 10 min incubation period at room temperature to determine nuclear receptor activities.

Human androgen receptors = target: T2, Human androgen receptors (Homo sapiens, UniProt P10275, T878A); assay: Biochemical AR LBD antagonism (Eurofins AR radioligand binding assay)
T2 construct: Human androgen receptors obtained from human LNCaP cells were used; host or cells: human LNCaP cells
T2 sequence (P10275 1-920 T878A): T1 sequence (P10275 1-920) with T878A
Experimental: Human androgen receptors obtained from human LNCaP cells were used in modified HEPES buffer pH 7.4. A 70 μg‡ aliquot was incubated with 0.5 nM [3H] Methyltrienolone for 20 h at 4° C. Non-specific binding was estimated in the presence of 1 μM testosterone. Receptors were filtered and washed, the filters were then counted to determine [3H] Methyltrienolone specifically bound. Compounds were screened at 10 μM.
Furthermore, as noted earlier, most clinically relevant AR inhibitors target the ligand binding domain (LBD) of the androgen receptor, and these inhibitors can lose efficacy due to point mutations in the LBD. Given that the AR protein contains multiple sub-domains, targeting other domains is an attractive approach for new inhibitors. […] Therefore, the compounds as described herein may be interacting with other subdomains in the AR protein, namely the N-terminal domain.

[1] = Human liver microsome stability; assay type: in vitro ADME; conditions: 1 μM
Experimental: (§1) Preincubation mixture 2.5 μL Test Cpd. +75 μL Liver microsomes (human or mouse source) @ 3.33 mg/mL+85 µL of 100 mM potassium phosphate buffer (preincubate for 10 min @ 37° C.). Incubation mixture 62 μL of cofactor (2.85 mM)+Remaining incubation mixture (Incubated for 60 min @ 37° C.). Sample preparation 25 μL incubation mixture+200 μL of acetonitrile containing internal standard+Vortex 5 min @ 1200 rpm+Centrifuge 10 min @ 4000 rpm. Supernatant diluted 2-fold with water and injected on LC-MS/MS.

[2] = Mouse liver microsome stability; assay type: in vitro ADME; conditions: 1 μM
Experimental: as §1

[3] = Table 4, read-out: Biochemical AR LBD Antagonism: Average IC50
[4] = Table 6, human liver microsomes
[5] = Table 6, mouse liver microsomes
[6] = Table 3, read-out: Biochemical AR LBD Antagonism: Avg IC50
[7] = Table 5, human liver microsomes
[8] = Table 5, mouse liver microsomes

Row | SMILES | IC50 (human AR; Table 2) | IC50 (Human androgen receptors; [3]) | Human LM: Rem @ 60 min [1, 4] | Mouse LM: Rem @ 60 min [2, 5] | IC50 (human AR; Table 1) | IC50 (Human androgen receptors; [6]) | times more potent than the racemic mixture (Comparative Compound 1) in the cell-based activity assay (human AR; versus Comparative Compound 1) | times more potent than the S isomer (Comparative Compound 2) in the cell-based activity assay (human AR; versus Comparative Compound 2) | Human LM: Rem @ 60 min [1, 7] | Mouse LM: Rem @ 60 min [2, 8]
1 | C[C@@H](Nc1ccc2nnc(C(F)(F)F)n2n1)c1cc(F)cc(F)c1 [Compound 2, (R)—N-(1-(3,5-difluorophenyl)ethyl)-3-(trifluoromethyl)-[1,2,4]triazolo[4,3-b]pyridazin-6-amine] | < 50 nM | > 501 nM | +++ (>60.1: “+++”) | +++ (>60.1: “+++”) |  |  |  |  |  | 
2 | C[C@@H](Nc1ccc2nnc(C(F)(F)F)n2n1)c1ccc(C#N)cc1 [Compound 9, (R)-4-(1-((3-(trifluoromethyl)-[1,2,4]triazolo[4,3-b]pyridazin-6-yl)amino)ethyl)benzonitrile] | > 501 nM |  |  |  |  |  |  |  |  | 
3 | C[C@H](Nc1ccc2nnc(C(F)(F)F)n2n1)c1ccc(F)cc1 [Comparative Compound 2, (S)—N-(1-(4-fluorophenyl)ethyl)-3-(trifluoromethyl)-[1,2,4]triazolo[4,3-b]pyridazin-6-amine, reference compound] |  |  |  |  | > 501 nM | > 501 nM |  |  |  | 
4 | C[C@@H](Nc1ccc2nnc(C(F)(F)F)n2n1)c1ccc(C(F)(F)F)cc1 [Compound 4, (R)-3-(trifluoromethyl)-N-(1-(4-(trifluoromethyl)phenyl)ethyl)-[1,2,4]triazolo[4,3-b]pyridazin-6-amine] | 51 to 500 nM |  | +++ (>60.1: “+++”) | +++ (>60.1: “+++”) |  |  |  |  |  | 
5 | CC[C@@H](Nc1ccc2nnc(C(F)(F)F)n2n1)c1ccc(F)cc1 [Compound 3, (R)—N-(1-(4-fluorophenyl)propyl)-3-(trifluoromethyl)-[1,2,4]triazolo[4,3-b]pyridazin-6-amine] | < 50 nM | > 501 nM | +++ (>60.1: “+++”) | +++ (>60.1: “+++”) |  |  |  |  |  | 
6 | C[C@@H](Nc1ccc2nnc(C(F)(F)F)n2n1)c1ccc(F)cc1 [Compound 1, (R)—N-(1-(4-fluorophenyl)ethyl)-3-(trifluoromethyl)-[1,2,4]triazolo[4,3-b]pyridazin-6-amine] | < 50 nM | > 501 nM | +++ (>60.1: “+++”) | ++ (30.1-60: “++”) | < 50 nM | > 501 nM | ~ 2 times | ~ 150 times | +++ (>60.1: “+++”) | ++ (30.1-60: “++”)
7 | Cc1nnc2ccc(N[C@H](C)c3ccc(F)cc3)nn12 [Compound 10, (R)—N-(1-(4-fluorophenyl)ethyl)-3-methyl-[1,2,4]triazolo[4,3-b]pyridazin-6-amine] | 51 to 500 nM | > 501 nM | +++ (>60.1: “+++”) | +++ (>60.1: “+++”) |  |  |  |  |  | 
8 | C[C@H](c1ccc(F)cc1)N(C)c1ccc2nnc(C(F)(F)F)n2n1 [Compound 5, (R)—N-(1-(4-fluorophenyl)ethyl)-N-methyl-3-(trifluoromethyl)-[1,2,4]triazolo[4,3-b]pyridazin-6-amine] | 51 to 500 nM | 51 to 500 nM | +++ (>60.1: “+++”) | + (0-30: “+”) |  |  |  |  |  | 
9 | COc1cc(Cl)cc([C@@H](C)Nc2ccc3nnc(C(F)(F)F)n3n2)c1 [Compound 7, (R)—N-(1-(3-chloro-5-methoxyphenyl)ethyl)-3-(trifluoromethyl)-[1,2,4]triazolo[4,3-b]pyridazin-6-amine] | 51 to 500 nM | 51 to 500 nM | +++ (>60.1: “+++”) | + (0-30: “+”) |  |  |  |  |  | 
10 | CC(Nc1ccc2nnc(C(F)(F)F)n2n1)c1ccc(F)cc1 (racemic) [Comparative Compound 1, (R, S)—N-(1-(4-fluorophenyl)ethyl)-3-(trifluoromethyl)-[1,2,4]triazolo[4,3-b]pyridazin-6-amine, reference compound] |  |  |  |  | 51 to 500 nM | > 501 nM |  |  | +++ (>60.1: “+++”) | +++ (>60.1: “+++”)
11 | C[C@@H](Nc1ccc2nnc(C(F)(F)F)n2n1)c1cc(Cl)cc(Cl)c1 [Compound 8, (R)—N-(1-(3,5-dichlorophenyl)ethyl)-3-(trifluoromethyl)-[1,2,4]triazolo[4,3-b]pyridazin-6-amine] | 51 to 500 nM | > 501 nM | +++ (>60.1: “+++”) | +++ (>60.1: “+++”) |  |  |  |  |  | 
12 | C[C@@H](Nc1ccc2nnc(C3CC3)n2n1)c1ccc(F)cc1 [Compound 11, (R)-3-cyclopropyl-N-(1-(4-fluorophenyl)ethyl)-[1,2,4]triazolo[4,3-b]pyridazin-6-amine] | > 501 nM |  |  |  |  |  |  |  |  | 
13 | C[C@@H](Nc1ccc2nnc(C(F)F)n2n1)c1ccc(F)cc1 [Compound 12] | 51 to 500 nM | > 501 nM | +++ (>60.1: “+++”) | +++ (>60.1: “+++”) |  |  |  |  |  | 

From patent publication US20260217716A1, “ANDROGEN RECEPTOR MODULATORS AND METHODS FOR THEIR USE” (Capulus Therapeutics, LLC, priority 2022, published 2026)
